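These data come from cells grown in 96-well plates and exposed to compound for 48 hours at five concentrations. TGI denotes the concentration required for complete inhibition of growth.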
Experiments:
Test in all cases: DTP human tumour cell line panel, 48 h
[1] = system: U251 CNS
[2] = system: UACC-62 melanoma
[3] = system: RXF 393 renal
[4] = system: HCT-15 colon
[5] = system: RPMI-8226 leukemia
[6] = system: CAKI-1 renal
[7] = system: DU-145 prostate
[8] = system: HT29 colon
[9] = system: OVCAR-5 ovarian
[10] = system: OVCAR-3 ovarian
[11] = system: MDA-MB-231 breast
[12] = system: SNB-19 CNS
[13] = system: NCI-H23 lung
[14] = system: EKVX NSCLC
[15] = system: IGROV1 ovarian
[16] = system: COLO 205 colon
[17] = system: NCI-H226 lung
[18] = system: SNB-75 CNS
[19] = system: BT-549 breast

CCN(CC)CCCNc1nc(=O)[nH]c(C)c1C(=O)Nc1cccc2cc3ccccc3cc12
TGI [1]: > 100 µM
TGI [2]: > 100 µM
TGI [3]: > 100 µM
TGI [4]: > 100 µM
TGI [5]: > 100 µM
TGI [6]: > 100 µM
TGI [7]: > 100 µM
TGI [8]: > 100 µM
TGI [9]: > 100 µM
TGI [10]: > 100 µM
TGI [11]: > 100 µM
TGI [12]: > 100 µM
TGI [13]: > 100 µM
TGI [14]: > 100 µM
TGI [15]: > 100 µM
TGI [16]: > 100 µM
TGI [17]: > 100 µM
TGI [18]: > 100 µM

O=[N+]([O-])c1ccc(-c2nnc(C34CC5CC(CC(C5)C3)C4)o2)cc1
TGI [1]: > 100 µM
TGI [2]: > 100 µM
TGI [3]: > 100 µM
TGI [4]: > 100 µM
TGI [5]: > 100 µM
TGI [6]: > 100 µM
TGI [7]: > 100 µM
TGI [8]: > 100 µM
TGI [9]: > 100 µM
TGI [10]: > 100 µM
TGI [11]: > 100 µM
TGI [12]: > 100 µM
TGI [13]: > 100 µM
TGI [14]: > 100 µM
TGI [15]: > 100 µM
TGI [16]: > 100 µM
TGI [17]: > 100 µM
TGI [18]: > 100 µM

CCOC(=O)C(=[N+]=[N-])C(=O)C1(C(=O)OCC)CCN(C(=O)c2ccccc2)C1=O (stereo unspecified)
TGI [2]: > 100 µM
TGI [3]: > 100 µM
TGI [4]: > 100 µM
TGI [6]: > 100 µM
TGI [7]: > 100 µM
TGI [8]: > 100 µM
TGI [9]: > 100 µM
TGI [11]: > 100 µM
TGI [12]: > 100 µM
TGI [13]: > 100 µM
TGI [14]: > 100 µM
TGI [15]: > 100 µM
TGI [16]: > 100 µM
TGI [17]: > 100 µM
TGI [18]: > 100 µM

O=Nc1c(O)cc(Nc2ccc(Br)cc2)c2ccccc12
TGI [1]: 40.8 µM
TGI [3]: 50.3 µM
TGI [4]: 15 µM
TGI [5]: > 86.9 µM
TGI [6]: 23.7 µM
TGI [7]: 3.33 µM
TGI [8]: 28.1 µM
TGI [9]: 29.8 µM
TGI [10]: > 51.9 µM
TGI [11]: 48.3 µM
TGI [12]: 11.8 µM
TGI [13]: 3.47 µM
TGI [14]: > 100 µM
TGI [15]: > 100 µM
TGI [16]: 26.6 µM
TGI [17]: 10.5 µM

S=c1sc2c(s1)SCCCCSCCCCSc1sc(=S)sc1SCCCCSCCCCS2
TGI [1]: > 100 µM
TGI [2]: > 100 µM
TGI [4]: > 100 µM
TGI [5]: > 100 µM
TGI [6]: > 100 µM
TGI [19]: > 100 µM
TGI [7]: > 100 µM
TGI [8]: > 100 µM
TGI [9]: > 100 µM
TGI [10]: > 100 µM
TGI [11]: > 100 µM
TGI [12]: > 100 µM
TGI [13]: > 100 µM
TGI [14]: > 100 µM
TGI [15]: > 100 µM
TGI [16]: > 100 µM
TGI [17]: > 100 µM
TGI [18]: 59.2 µM

CCOC(CN=C=S)OCC
TGI [1]: > 10 µM
TGI [2]: > 10 µM
TGI [3]: > 10 µM
TGI [4]: > 10 µM
TGI [5]: > 10 µM
TGI [6]: > 10 µM
TGI [7]: > 10 µM
TGI [8]: > 10 µM
TGI [10]: > 10 µM
TGI [11]: > 10 µM
TGI [12]: > 10 µM
TGI [13]: > 10 µM
TGI [14]: > 10 µM
TGI [15]: > 10 µM
TGI [16]: > 10 µM
TGI [17]: > 10 µM
TGI [18]: > 10 µM

COC12OC3(C4OC41)C(C(=O)O[C@H]3CO[Si](C)(C)C(C)(C)C)C2C(=O)Oc1ccccc1 (stereo partly specified)
TGI [1]: > 100 µM
TGI [2]: > 100 µM
TGI [4]: > 100 µM
TGI [5]: > 100 µM
TGI [6]: > 100 µM
TGI [19]: > 100 µM
TGI [7]: > 100 µM
TGI [8]: > 100 µM
TGI [9]: > 100 µM
TGI [10]: > 100 µM
TGI [11]: > 100 µM
TGI [12]: > 100 µM
TGI [13]: > 100 µM
TGI [14]: > 100 µM
TGI [15]: > 100 µM
TGI [16]: > 100 µM
TGI [17]: > 100 µM
TGI [18]: > 100 µM

CCCCCCCCCCCC(=O)Oc1c(Cl)cc(Cl)c(OC(=O)C(=O)Oc2c(Cl)cc(Cl)c(OC(=O)CCCCCCCCCCC)c2Cl)c1Cl
TGI [1]: > 100 µM
TGI [2]: > 100 µM
TGI [3]: > 100 µM
TGI [5]: > 100 µM
TGI [6]: > 100 µM
TGI [19]: > 100 µM
TGI [7]: > 100 µM
TGI [8]: > 100 µM
TGI [9]: > 100 µM
TGI [12]: > 100 µM
TGI [13]: > 100 µM
TGI [14]: > 100 µM
TGI [15]: > 100 µM
TGI [16]: > 100 µM
TGI [18]: > 100 µM

O=C(Cc1ccccc1)NNc1nc(NNC(=O)c2ccncc2)nc(Nc2ccc([N+](=O)[O-])cc2)n1
TGI [1]: > 10 µM
TGI [2]: > 10 µM
TGI [4]: > 10 µM
TGI [5]: > 10 µM
TGI [6]: > 10 µM
TGI [19]: > 10 µM
TGI [7]: > 10 µM
TGI [8]: > 10 µM
TGI [9]: > 10 µM
TGI [10]: > 10 µM
TGI [11]: > 10 µM
TGI [12]: > 10 µM
TGI [13]: > 10 µM
TGI [14]: > 10 µM
TGI [15]: > 10 µM
TGI [16]: > 10 µM
TGI [18]: > 10 µM

c1ccc([P+](Cc2ccc(C[P+](c3ccccc3)(c3ccccc3)c3ccccc3)cc2)(c2ccccc2)c2ccccc2)cc1
TGI [1]: > 100 µM
TGI [2]: > 100 µM
TGI [3]: > 100 µM
TGI [4]: > 100 µM
TGI [5]: > 100 µM
TGI [6]: > 100 µM
TGI [7]: > 100 µM
TGI [8]: > 100 µM
TGI [9]: > 100 µM
TGI [10]: > 100 µM
TGI [11]: > 100 µM
TGI [12]: > 100 µM
TGI [13]: > 100 µM
TGI [14]: > 100 µM
TGI [15]: > 100 µM
TGI [16]: > 100 µM
TGI [17]: > 100 µM
TGI [18]: > 100 µM

C=CCOc1ccc(/C(N=Nc2ccc([N+](=O)[O-])cc2)=N/NC(=O)c2ccccc2)cc1OC
TGI [1]: > 100 µM
TGI [2]: > 100 µM
TGI [3]: > 100 µM
TGI [4]: > 100 µM
TGI [6]: > 100 µM
TGI [19]: > 100 µM
TGI [7]: > 100 µM
TGI [8]: > 100 µM
TGI [9]: > 100 µM
TGI [10]: > 100 µM
TGI [11]: > 100 µM
TGI [12]: > 100 µM
TGI [13]: > 100 µM
TGI [14]: > 100 µM
TGI [15]: > 100 µM
TGI [16]: > 100 µM
TGI [17]: > 100 µM
TGI [18]: > 100 µM

N#CCc1nc2ccccc2c(=O)[nH]1
TGI [1]: > 100 µM
TGI [4]: > 100 µM
TGI [6]: > 100 µM
TGI [7]: > 100 µM
TGI [8]: > 100 µM
TGI [9]: > 100 µM
TGI [10]: > 100 µM
TGI [11]: > 100 µM
TGI [12]: > 100 µM
TGI [13]: > 100 µM
TGI [14]: > 100 µM
TGI [15]: > 100 µM
TGI [16]: > 100 µM
TGI [17]: > 100 µM
TGI [18]: > 100 µM

CC(=O)N1C(=O)/C(=C\C(=O)c2ccc([N+](=O)[O-])cc2)c2ccccc21
TGI [1]: 46.4 µM
TGI [2]: 38.1 µM
TGI [3]: > 100 µM
TGI [4]: 32.1 µM
TGI [6]: 41.2 µM
TGI [19]: 42.1 µM
TGI [7]: > 100 µM
TGI [8]: 34.6 µM
TGI [9]: > 100 µM
TGI [10]: 32.2 µM
TGI [11]: 84.5 µM
TGI [12]: > 100 µM
TGI [13]: 88.7 µM
TGI [14]: 51.6 µM
TGI [15]: 53.9 µM
TGI [16]: 41.1 µM
TGI [17]: > 100 µM
TGI [18]: 49.6 µM

Reference: PubChem BioAssay (NCI)
